The text below walks through data of patent US20030180294A1, “Methods of extending corneal graft survival” (priority 2002, published 2003).

In assay [1] the test system is corneal transplants in the Lewis/Wistar-Furth combination. The assay is described as follows: rat model of keratoplasty, corneal graft survival. Conditions: Lewis cornea to Wistar-Furth recipient, systemic 0.5 to 200 mg/kg/day or eye drop 0.05% to 5.0%, versus vehicle (rejection on average at day 30). In kind it is in vivo. As to the method:
Grafts are prepared and transferred according to the well-characterized rat model of keratoplasty with transplantation of corneas from Lewis strain rats to Wistar-Furth recipients (Callanan et al., Transplantation 45:437-443 (1988)). Each treatment group administered vehicle or test agent includes nine to fourteen rats. Grafts are observed clinically and scored three times per week for signs of rejection according to the criteria in Callanan et al., supra, 1988. Day 60 following surgery represents a two-fold prolongation in the expected mean survival time for corneal transplants in the Lewis/Wistar-Furth combination and therefore is selected as an advantageous time for terminating treatment. Rats bearing grafts not rejected by day 60 are observed for an additional 14 days to determine if the host's immune system has been tolerized. At this time, 80% of the grafted eyes are snap frozen for cryostat sectioning, and the remaining 20% of the eyes are fixed in formalin for H & E staining.
The VEGFR-3 tyrosine kinase inhibitor MAE87, MAE106 or MAZ51 is administered systemically at various concentrations, ranging from 0.5 to 200 mg/kg/day. In other animals, the compound is administered as an eye drop solution in various concentrations ranging from 0.05% to 5.0% and administered as various frequencies (once per day, two times per day and three times per day).

Assay [2] addresses VEGFR-3 (Homo sapiens, UniProt P35916). As to conditions: VEGF-C and VEGF-D induced; cited from earlier work.

Chain of VEGFR-3 (P35916 25-1363, species assumed): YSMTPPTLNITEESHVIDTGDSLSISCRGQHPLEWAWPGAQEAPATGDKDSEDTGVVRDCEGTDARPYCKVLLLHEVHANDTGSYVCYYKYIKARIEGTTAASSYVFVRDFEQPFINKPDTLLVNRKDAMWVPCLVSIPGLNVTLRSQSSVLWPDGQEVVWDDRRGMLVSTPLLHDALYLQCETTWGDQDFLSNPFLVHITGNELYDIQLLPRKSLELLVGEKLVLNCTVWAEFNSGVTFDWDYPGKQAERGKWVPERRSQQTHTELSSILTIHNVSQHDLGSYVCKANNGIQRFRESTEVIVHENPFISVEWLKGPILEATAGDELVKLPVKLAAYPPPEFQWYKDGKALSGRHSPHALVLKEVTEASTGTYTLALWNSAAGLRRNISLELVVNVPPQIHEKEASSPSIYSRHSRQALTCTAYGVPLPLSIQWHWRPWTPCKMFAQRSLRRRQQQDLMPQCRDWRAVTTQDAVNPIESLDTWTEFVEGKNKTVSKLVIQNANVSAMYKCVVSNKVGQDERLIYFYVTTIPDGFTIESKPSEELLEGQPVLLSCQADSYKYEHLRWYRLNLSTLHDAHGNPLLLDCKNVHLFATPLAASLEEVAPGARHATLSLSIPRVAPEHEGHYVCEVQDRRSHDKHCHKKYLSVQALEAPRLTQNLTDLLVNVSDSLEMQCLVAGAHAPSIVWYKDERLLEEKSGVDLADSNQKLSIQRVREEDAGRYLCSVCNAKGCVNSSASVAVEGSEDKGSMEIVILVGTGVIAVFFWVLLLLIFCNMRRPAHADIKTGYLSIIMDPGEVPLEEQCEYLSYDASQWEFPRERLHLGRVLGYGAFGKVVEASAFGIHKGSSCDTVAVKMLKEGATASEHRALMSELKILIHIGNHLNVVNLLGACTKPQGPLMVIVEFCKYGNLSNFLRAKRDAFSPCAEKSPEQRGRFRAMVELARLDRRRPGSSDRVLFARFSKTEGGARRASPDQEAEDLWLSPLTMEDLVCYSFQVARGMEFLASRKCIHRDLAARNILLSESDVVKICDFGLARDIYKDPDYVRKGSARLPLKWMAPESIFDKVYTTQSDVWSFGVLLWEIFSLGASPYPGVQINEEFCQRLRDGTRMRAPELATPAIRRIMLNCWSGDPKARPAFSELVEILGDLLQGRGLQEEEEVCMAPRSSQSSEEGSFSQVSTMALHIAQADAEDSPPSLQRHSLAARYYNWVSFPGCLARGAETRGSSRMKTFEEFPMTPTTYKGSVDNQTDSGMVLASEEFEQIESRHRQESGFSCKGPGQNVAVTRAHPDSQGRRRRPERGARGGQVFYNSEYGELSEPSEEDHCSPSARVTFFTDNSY

As for `O=C1Nc2ccccc2C1=Cc1ccc(O)cc1O` [MAE87, 3(2,4-dihydroxy-benzylidene)-1,3-dihydro-indol-2-one], the “mean graft survival (delay in evidence of graft rejection)” value (shortened to “mean graft survival”) in assay [1] was “increased mean graft survival”.

Take `COc1ccc(C=C2C(=O)Nc3ccccc32)cc1F` [MAE106, 3-(3-fluoro-4-methoxy-benzylidene)-1,3-dihydro-indol-2-one]: the “mean graft survival” value in assay [1] is listed as “increased mean graft survival”. In assay [2], the “VEGFR-3 kinase activity versus VEGFR-2 (specificity)” value was “differentially block VEGF-C and VEGF-D induced VEGFR-3 kinase activity compared to that of VEGFR-2”.

In the case of `CN(C)c1ccc(C=C2C(=O)Nc3ccccc32)c2ccccc12` [MAZ51, 3-(4-dimethylamino-naphthalen-1-ylmethylene)-1,3-dihydro-indol-2-one], the “mean graft survival” value in assay [1] is on record as “increased mean graft survival”. The “VEGFR-3 kinase activity versus VEGFR-2 (specificity)” value in assay [2] is “differentially block VEGF-C and VEGF-D induced VEGFR-3 kinase activity compared to that of VEGFR-2”.
